PubChem BioAssay AID270 (DTP/NCI, 2004)
Where “and” joins values, the source holds several entries; their conditions need not be identical. Equal values may be shown once. Inconclusive results are not listed.

Test system: BDF1 mice, s.c. Lewis lung carcinoma, T/C %
Assay: NCI In Vivo Anticancer Drug Screen. Data for tumor model Lewis Lung Carcinoma (subcutaneous) in B6D2F1 (BDF1) mice
Outline: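 Tumor-bearing mice were treated with test compound, and either survival or tumor size was recorded. Values are the treated-group measurement divided by that of the vehicle-treated control group.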

CC(=O)Oc1ccc(/C=N/NC(N)=S)nc1
T/C (endpoint: median survival time, dose: 9.4 mg/kg/injection, schedule: Q01DX009 (ip), vehicle: saline with Tween-80, higher = longer survival): 97 % of control
T/C (endpoint: median survival time, dose: 18.8 mg/kg/injection, schedule: Q01DX009 (ip), vehicle: saline with Tween-80, higher = longer survival): 97 % of control
T/C (endpoint: median survival time, dose: 25.0 mg/kg/injection, schedule: Q01DX009 (ip), vehicle: saline with Tween-80, higher = longer survival): 100 % of control
T/C (endpoint: median survival time, dose: 37.5 mg/kg/injection, schedule: Q01DX009 (ip), vehicle: saline with Tween-80, higher = longer survival): 101 % of control
T/C (endpoint: median survival time, dose: 50.0 mg/kg/injection, schedule: Q01DX009 (ip), vehicle: saline with Tween-80, higher = longer survival): 107 % of control
T/C (endpoint: median survival time, dose: 75.0 mg/kg/injection, schedule: Q01DX009 (ip), vehicle: saline with Tween-80, higher = longer survival): 117 % of control
T/C (endpoint: median survival time, dose: 100.0 mg/kg/injection, schedule: Q01DX009 (ip), vehicle: saline with Tween-80, higher = longer survival): 117 % of control
T/C (endpoint: median tumor weight (est.), dose: 24.0 mg/kg/injection, schedule: Q03HX024 (ip), vehicle: saline with Tween-80, higher = larger tumour): 96 % of control
T/C (endpoint: median tumor weight (est.), dose: 36.0 mg/kg/injection, schedule: Q03HX024 (ip), vehicle: saline with Tween-80, higher = larger tumour): 41 % of control

COc1cc2c[n+](C)c3c4cc5c(cc4ccc3c2cc1OC)OCO5 (tested in a mixture with another compound)
T/C (endpoint: median survival time, dose: 5.0 mg/kg/injection, schedule: Q01DX009 (ip), vehicle: saline, higher = longer survival): 92 % of control
T/C (endpoint: median survival time, dose: 10.0 mg/kg/injection, schedule: Q01DX009 (ip), vehicle: saline, higher = longer survival): 96 % of control
T/C (endpoint: median survival time, dose: 20.0 mg/kg/injection, schedule: Q01DX009 (ip), vehicle: saline, higher = longer survival): 86 % of control

CC(C)[C@]1(O)CC[C@H]2[C@@H]3CCc4cc(O)ccc4[C@H]3CC[C@@]21C
T/C (endpoint: mean tumor weight, dose: 2.5 mg/kg/injection, schedule: Q01DX011 (sc), vehicle: saline, higher = larger tumour): 87 % of control
T/C (endpoint: mean tumor weight, dose: 5.0 mg/kg/injection, schedule: Q01DX011 (sc), vehicle: saline, higher = larger tumour): 68 % of control
T/C (endpoint: mean tumor weight, dose: 10.0 mg/kg/injection, schedule: Q01DX011 (sc), vehicle: saline, higher = larger tumour): 80 % of control
T/C (endpoint: mean tumor weight, dose: 10.0 mg/kg/injection, schedule: Q01DX011 (sc), vehicle: steriod suspending solution, higher = larger tumour): 51 % of control
T/C (endpoint: mean tumor weight, dose: 20.0 mg/kg/injection, schedule: Q01DX011 (sc), vehicle: steriod suspending solution, higher = larger tumour): 65 % of control
T/C (endpoint: mean tumor weight, dose: 40.0 mg/kg/injection, schedule: Q01DX011 (sc), vehicle: steriod suspending solution, higher = larger tumour): 36 % of control
T/C (endpoint: mean tumor weight, dose: 80.0 mg/kg/injection, schedule: Q01DX011 (sc), vehicle: steriod suspending solution, higher = larger tumour): 55 % of control

CC(=O)OC1CCC(NC(=O)N(CCF)N=O)CC1 (stereo not given)
T/C (endpoint: median survival time, dose: 24.0 mg/kg/injection, schedule: Q01DX001 (ip), vehicle: saline with Tween-80, higher = longer survival): 100 % of control
T/C (endpoint: median survival time, dose: 36.0 mg/kg/injection, schedule: Q01DX001 (ip), vehicle: saline with Tween-80, higher = longer survival): 102 % of control

C[CH2][Pb]([CH2]C)([CH2]C)[O]C(=O)COC
T/C (endpoint: median survival time, dose: 1.56 mg/kg/injection, schedule: Q01DX009 (ip), vehicle: Klucel (hydroxypropylcellulose) (HPC), higher = longer survival): 92 % of control
T/C (endpoint: median survival time, dose: 3.13 mg/kg/injection, schedule: Q01DX009 (ip), vehicle: Klucel (hydroxypropylcellulose) (HPC), higher = longer survival): 96 % of control

Cn1c(O)c(N=NC(N)=S)c2ccccc21
T/C (endpoint: mean tumor weight, dose: 15.0 mg/kg/injection, schedule: Q01DX011 (ip), vehicle: carboxymethylcellulose (CMC), higher = larger tumour): 70 % of control
T/C (endpoint: mean tumor weight, dose: 120.0 mg/kg/injection, schedule: Q01DX011 (ip), vehicle: carboxymethylcellulose (CMC), higher = larger tumour): 77 % of control and 82 % of control
T/C (endpoint: mean tumor weight, dose: 360.0 mg/kg/injection, schedule: Q01DX011 (ip), vehicle: carboxymethylcellulose (CMC), higher = larger tumour): 57 % of control
T/C (endpoint: mean tumor weight, dose: 500.0 mg/kg/injection, schedule: Q01DX011 (ip), vehicle: carboxymethylcellulose (CMC), higher = larger tumour): 52 % of control

CC(=O)NC1=C(N2CC2)C(=O)C(NC(C)=O)=C(N2CC2)C1=O
T/C (endpoint: median survival time, dose: 0.12 mg/kg/injection, schedule: Q01DX009 (ip), vehicle: saline with Tween-80, higher = longer survival): 105 % of control and 111 % of control
T/C (endpoint: median survival time, dose: 0.25 mg/kg/injection, schedule: Q01DX005 (ip), vehicle: saline with Tween-80, higher = longer survival): 102 % of control and 119 % of control
T/C (endpoint: median survival time, dose: 0.25 mg/kg/injection, schedule: Q01DX009 (ip), vehicle: saline with Tween-80, higher = longer survival): 102 % of control and 112 % of control
T/C (endpoint: median survival time, dose: 0.5 mg/kg/injection, schedule: Q01DX005 (ip), vehicle: saline with Tween-80, higher = longer survival): 98 % of control and 109 % of control
T/C (endpoint: median survival time, dose: 0.5 mg/kg/injection, schedule: Q01DX009 (ip), vehicle: saline with Tween-80, higher = longer survival): 87 % of control and 105 % of control
T/C (endpoint: median survival time, dose: 1.0 mg/kg/injection, schedule: Q01DX005 (ip), vehicle: saline with Tween-80, higher = longer survival): 115 % of control
T/C (endpoint: median survival time, dose: 1.0 mg/kg/injection, schedule: Q01DX009 (ip), vehicle: saline with Tween-80, higher = longer survival): 123 % of control
T/C (endpoint: median survival time, dose: 2.0 mg/kg/injection, schedule: Q01DX005 (ip), vehicle: saline with Tween-80, higher = longer survival): 94 % of control
